In US8633168B2, “Inhibitors of S-adenosyl-L-methionine decarboxylase” (Genzyme Corporation, priority 2007, dated 2014):
Read-outs that look alike come from different tables or passages of the source.

Legend:
[1] = Hepatocyte stability, rat; assay type: in vitro ADME; settings: for Hepatocyte stability (CL) rat: Table 2; for CLint scaled: hepatocytes, Example 12 chart
Procedure: (§1) Liver microsomes and hepatocytes represent an in vitro surrogate for assessing the phase I/II metabolic stability of new discovery leads. Following the incubation of the compounds with microsomes or hepatocytes of different species (e.g., human, rat, dog, monkey, mouse), the samples were transferred to 96 well plates for quantitation using LC/MS/MS. The % of compound remaining was measured and used to calculate clearance and % hepatic blood flow.

[2] = Solubility in phosphate buffer; assay type: physicochemical; settings: for Sol.: Table 2, @ 7.4; for solubility at 16 hours: phosphate buffer
Procedure: A stock solution for each test compound was prepared at 25 mM in DMSO. These were diluted into phosphate buffer and equilibrated for 16 hours at room temperature, and then filtered to remove precipitated compound. The UV absorbance of this equilibrated sample was compared to a single point reference standard.

CYP2D6 = CYP2D6 (Homo sapiens, UniProt P10635); assay: Cytochrome P450 inhibition, CYP2D6
Chain of CYP2D6 (P10635 whole entry): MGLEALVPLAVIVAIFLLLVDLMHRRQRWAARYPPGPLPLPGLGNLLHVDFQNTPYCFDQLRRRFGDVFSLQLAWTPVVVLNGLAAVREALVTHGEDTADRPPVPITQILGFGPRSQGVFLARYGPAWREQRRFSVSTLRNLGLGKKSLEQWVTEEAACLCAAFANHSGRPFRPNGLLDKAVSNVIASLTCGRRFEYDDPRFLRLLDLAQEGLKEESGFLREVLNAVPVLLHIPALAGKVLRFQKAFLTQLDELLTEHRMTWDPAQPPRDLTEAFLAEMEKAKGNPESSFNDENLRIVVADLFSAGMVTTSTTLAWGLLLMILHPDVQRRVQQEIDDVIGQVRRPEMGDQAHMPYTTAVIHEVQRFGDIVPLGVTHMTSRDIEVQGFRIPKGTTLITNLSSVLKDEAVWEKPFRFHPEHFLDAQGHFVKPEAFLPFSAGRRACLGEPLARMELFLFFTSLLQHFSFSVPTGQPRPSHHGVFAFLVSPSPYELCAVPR
Description: (§2) This cytochrome P450 high throughput IC50 inhibition assay is utilized for screening potential inhibitors of the 5 major human CYP isozyme catalytic activities (CYP3A4, 2D6, 2C9, 2C19, and 1A2).

L. donovani (axenic) = assay: Screening against L. donovani (axenic); assay type: cell-based; settings: Leishmania donovani; Screening Data
CYP2C19 = CYP2C19 (Homo sapiens, UniProt P33261); assay: Cytochrome P450 inhibition, CYP2C19
Chain of CYP2C19 (P33261 whole entry): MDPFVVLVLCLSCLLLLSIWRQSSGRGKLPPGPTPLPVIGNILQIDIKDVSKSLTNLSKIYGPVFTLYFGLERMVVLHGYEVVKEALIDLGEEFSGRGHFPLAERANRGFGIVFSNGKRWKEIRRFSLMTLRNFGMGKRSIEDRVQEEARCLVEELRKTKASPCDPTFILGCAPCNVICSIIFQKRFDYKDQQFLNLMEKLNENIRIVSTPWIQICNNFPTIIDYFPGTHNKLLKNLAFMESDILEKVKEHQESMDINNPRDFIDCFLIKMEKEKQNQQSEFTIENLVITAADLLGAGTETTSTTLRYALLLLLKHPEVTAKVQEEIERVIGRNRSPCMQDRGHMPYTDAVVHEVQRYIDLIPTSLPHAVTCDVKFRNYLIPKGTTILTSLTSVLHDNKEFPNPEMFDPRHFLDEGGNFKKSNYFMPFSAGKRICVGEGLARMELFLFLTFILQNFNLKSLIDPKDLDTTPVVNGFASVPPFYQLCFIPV
Description: as §2

CYP2C9 = CYP2C9 (Homo sapiens, UniProt P11712); assay: Cytochrome P450 inhibition, CYP2C9
Chain of CYP2C9 (P11712 whole entry): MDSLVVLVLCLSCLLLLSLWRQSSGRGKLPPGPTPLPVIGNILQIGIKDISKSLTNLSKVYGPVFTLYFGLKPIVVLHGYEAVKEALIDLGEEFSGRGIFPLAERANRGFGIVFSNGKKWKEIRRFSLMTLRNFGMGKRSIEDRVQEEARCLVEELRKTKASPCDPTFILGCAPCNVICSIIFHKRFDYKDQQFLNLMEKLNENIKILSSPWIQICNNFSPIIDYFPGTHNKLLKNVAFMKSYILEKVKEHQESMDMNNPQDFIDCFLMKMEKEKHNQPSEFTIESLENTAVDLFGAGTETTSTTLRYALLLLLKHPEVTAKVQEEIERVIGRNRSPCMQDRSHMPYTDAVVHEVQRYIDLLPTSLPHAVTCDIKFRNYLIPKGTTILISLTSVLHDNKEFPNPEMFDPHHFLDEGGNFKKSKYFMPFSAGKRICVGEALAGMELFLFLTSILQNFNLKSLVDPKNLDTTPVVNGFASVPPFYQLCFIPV
Description: as §2

[3] = Hepatocyte stability, human; assay type: in vitro ADME; settings: for Hepatocyte stability (CL) human: Table 2; for CLint scaled: hepatocytes, Example 12 chart
Procedure: as §1

T. brucei SAM DC = target: T1, T. brucei SAM DC (Trypanosoma brucei brucei, UniProt P50244); assay: SAMDC enzyme inhibition assay (14CO2 release from 14C-AdoMet); assay type: biochemical; settings: Table 1; read-out: kinact/Ki^app against SAM DC enzyme by SW (converted)
T1 construct: made in house
T1 sequence (P50244 86-370 limits assumed): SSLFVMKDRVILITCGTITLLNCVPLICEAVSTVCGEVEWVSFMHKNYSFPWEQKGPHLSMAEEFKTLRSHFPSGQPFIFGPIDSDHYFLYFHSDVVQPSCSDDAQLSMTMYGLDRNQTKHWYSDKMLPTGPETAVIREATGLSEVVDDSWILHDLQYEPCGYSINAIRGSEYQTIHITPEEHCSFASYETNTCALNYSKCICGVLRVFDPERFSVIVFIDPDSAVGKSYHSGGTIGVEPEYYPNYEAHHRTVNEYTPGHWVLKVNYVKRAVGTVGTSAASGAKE
Procedure: Steady state kinetics were performed as described (Kinch, L. N., J. R. Scott, B. Ullman, and M. A. Phillips. “Cloning and Kinetic Characterization of the Trypanosoma Cruzi S-Adenosylmethionine Decarboxylase.” Mol Biochem Parasitol 101, no. 1-2 (1999): 1-11. Beswick, T. C., E. K. Willert, and M. A. Phillips. “Mechanisms of Allosteric Regulation of Trypanosoma Cruzi S-Adenosylmethionine Decarboxylase.” Biochemistry 45, no. 25 (2006): 7797-807.). This assay measures the amount of ^14CO2 elaborated by enzymatic cleavage of ^14C-AdoMet. Reactions were carried out in assay buffer (100 mM Hepes pH 8.0, 50 mM NaCl, and 1 mM DTT) using the AdoMetDC/AdoMetDC Prozyme complex at ^14C-AdoMet concentrations of 10-160 μM with saturating putrescine (5 mM) (Willert E K, Phillips M A, 2007. “Allosteric regulation of an essential trypanosome polyamine biosynthetic enzyme by a catalytically dead homolog”. Proc Natl Acad Sci USA 104: 8275-8280). The reaction components were added to a test tube on ice to a total final volume of 100 μl. The reaction was initiated by the addition of enzyme (1-4 μM for T. brucei SAM DC), and a piece of filter paper soaked in saturated barium hydroxide was hung on the side of the test tube, which was then capped with a rubber stopper. Reactions were incubated at 37° C. in a water bath for 5-40 minutes. The assay was stopped by the addition of 200 μl 6 M HCl. The quenched reaction was kept at 37° C. for at least 30 minutes to allow for evolution of the CO2 from the solution. The filter paper was then added to 5 ml of scintillation fluid and counted. Test compounds were assessed over a range of 4 concentrations. Kinetic and regression analysis were performed using GraphPad Prism™.
Purified, recombinant T. brucei SAM-decarboxylase and its prozyme are prepared and assayed in the laboratory of Dr. Phillips according to procedures from that lab. Kinch L N, Scott J R, Ullman B, Phillips M A, “Cloning and kinetic characterization of the Trypanosoma cruzi S-adenosylmethionine decarboxylase,” Mol Biochem Parasitol 101: 1-11. Willert E K, Fitzpatrick R, Phillips M A, 2007 (1999). Briefly, the assay employs ^14C-labelled S-adenosyl methionine (^14C-AdoMet). Reactions are carried out in buffer (100 mM Hepes pH 8.0, 50 mM NaCl, and 5 mM DTT) at ^14C-AdoMet concentrations of 10-160 μM with saturating putrescine (5 mM). The reaction components are added to a test tube on ice to a total final volume of 100 μl. The reaction is initiated by the addition of enzyme (1-4 μM for T. brucei SAM DC), and a piece of filter paper soaked in saturated barium hydroxide is hung on the side of the test tube, which is then capped with a rubber stopper. Reactions are incubated at 37° C. in a water bath for 5-40 minutes. The assay is stopped by the addition of 200 μl 6 M HCl. The quenched reaction is kept at 37° C. for at least 30 minutes to allow for evolution of the CO2 from the solution. The filter paper is then added to 5 ml of scintillation fluid and counted. Test compounds were assessed over a range of 4 concentrations. Kinetic and regression analysis are performed using GraphPad Prism.™ Results of this test are exemplified in FIG. 4.

[4] = aqueous buffer, kinetic from dmso stock, Example 12 chart, pH 7.4
[5] = human, probe fluorometric substrates (not named)
[6] = read-out: CYP IC50 2D6, Example 12 chart
[7] = read-out: CYP IC50 2C19, Example 12 chart
[8] = read-out: CYP IC50 2C9, Example 12 chart

| Structure (SMILES) | Hepatocyte stability (CL) rat [1] | CLint scaled [1] | Sol. [2] | solubility at 16 hours [2, 4] | IC50 (CYP2D6; [5]) | IC50 (L. donovani (axenic)) | IC50 (CYP2C19; [5]) | IC50 (CYP2C9; [5]) | Hepatocyte stability (CL) human [3] | CLint scaled [3] | kinact/KI (T. brucei SAM DC) | IC50 (CYP2D6) | IC50 (CYP2D6; [6]) | IC50 (CYP2C19) | IC50 (CYP2C19; [7]) | IC50 (CYP2C9) | IC50 (CYP2C9; [8]) | solubility [2, 4] |
| --- | --- | --- | --- | --- | --- | --- | --- | --- | --- | --- | --- | --- | --- | --- | --- | --- | --- | --- |
| Cc1nc2c(N)ncnc2n1[C@@H]1O[C@H](CN(C)C/C=C\CN)[C@@H](O)[C@H]1O (stereo in doubt) [Compound 4] | <11 mL/min/kg | < 3.5 mL/min/kg | >49 (@ 7.4) ug/ml | > 49 µg/mL | – | > 85 µM | – | – | <4.2 mL/min/kg | < 1.7 mL/min/kg | 130000 M⁻¹ s⁻¹ | > 5 µM | > 5 µM | > 5 µM | > 5 µM | > 5 µM | > 5 µM | – |
| CN(C/C=C\CN)CC1OC(n2cnc3c(N)ncnc32)C(O)C1O (stereo not shown) [MDL-73811, reference compound] | <11 mL/min/kg | < 3.5 mL/min/kg | >47 (@ 7.4) ug/ml | – | – | > 85 µM | – | – | <4.2 mL/min/kg | < 1.7 mL/min/kg | 24900 M⁻¹ s⁻¹ | > 5 µM | > 5 µM | > 5 µM | > 5 µM | > 5 µM | > 5 µM | > 47 µg/mL |

Further lines, with some results ahead:

| Hepatocyte stability (CL) rat [1] | CLint scaled [1] | Sol. [2] | solubility at 16 hours [2, 4] | IC50 (CYP2D6; [5]) | IC50 (L. donovani (axenic)) | IC50 (CYP2C19; [5]) | IC50 (CYP2C9; [5]) | Hepatocyte stability (CL) human [3] | CLint scaled [3] | kinact/KI (T. brucei SAM DC) | Structure (SMILES) | IC50 (CYP2D6) | IC50 (CYP2D6; [6]) | IC50 (CYP2C19) | IC50 (CYP2C19; [7]) | IC50 (CYP2C9) | IC50 (CYP2C9; [8]) | solubility [2, 4] |
| --- | --- | --- | --- | --- | --- | --- | --- | --- | --- | --- | --- | --- | --- | --- | --- | --- | --- | --- |
| <11 mL/min/kg | < 3.5 mL/min/kg | >47 (@ 7.4) ug/ml | > 47 µg/mL | > 5 µM | > 85 µM | > 5 µM | > 5 µM | <4.2 mL/min/kg | < 1.7 mL/min/kg | 3200 M⁻¹ s⁻¹ | CN(C/C=C\CN)C[C@H]1O[C@@H](n2cnc3c(N)ncnc32)[C@H](F)[C@@H]1O (stereo in doubt) [Compound 1] | – | – | – | – | – | – | – |
| <11 mL/min/kg | < 3.5 mL/min/kg | >47 (@ 7.4) ug/ml | > 47 µg/mL | – | > 85 µM | – | – | <4.2 mL/min/kg | < 1.7 mL/min/kg | 32700 M⁻¹ s⁻¹ | CN(C/C=C\CN)C[C@H]1O[C@@H](n2cnc3c(N)ncnc32)[C@@H](F)[C@@H]1O [Compound 2] | > 5 µM | > 5 µM | > 5 µM | > 5 µM | > 5 µM | > 5 µM | – |
| <11 mL/min/kg | < 3.5 mL/min/kg | >51 (@ 7.4) ug/ml | > 51 µg/mL | – | > 85 µM | – | – | <4.2 mL/min/kg | < 1.7 mL/min/kg | 300 M⁻¹ s⁻¹ | CN(C/C=C\CN)C[C@H]1O[C@@H](n2cnc3c(N)nc(Cl)nc32)[C@H](O)[C@@H]1O [Compound 3] | > 5 µM | > 5 µM | > 5 µM | > 5 µM | > 5 µM | > 5 µM | – |
